According to publication PMC4951600 (Iranian Journal of Basic Medical Sciences, 2016):

Molecular target: mitochondrial ATP synthase (DNP-stimulated Mg2+-ATPase), rat heart mitochondria (Rattus norvegicus, UniProt P10719+P15999)
Test: phosphate release from ATP
Type: biochemical

mitochondrial ATP synthase (DNP-stimulated Mg2+-ATPase), rat heart mitochondria, sequence (P10719 47-529): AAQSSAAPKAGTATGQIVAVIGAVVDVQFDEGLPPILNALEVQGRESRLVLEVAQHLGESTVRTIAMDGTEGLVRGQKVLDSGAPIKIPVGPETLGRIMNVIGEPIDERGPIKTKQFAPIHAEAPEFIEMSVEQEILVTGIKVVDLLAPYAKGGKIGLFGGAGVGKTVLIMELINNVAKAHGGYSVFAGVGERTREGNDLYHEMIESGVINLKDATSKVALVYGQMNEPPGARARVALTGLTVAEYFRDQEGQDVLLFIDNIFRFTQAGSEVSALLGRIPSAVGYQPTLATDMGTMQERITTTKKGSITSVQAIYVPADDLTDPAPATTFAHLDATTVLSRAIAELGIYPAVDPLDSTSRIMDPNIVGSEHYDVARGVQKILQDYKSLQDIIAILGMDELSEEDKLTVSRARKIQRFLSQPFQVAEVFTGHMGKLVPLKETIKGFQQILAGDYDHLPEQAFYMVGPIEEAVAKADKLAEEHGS
mitochondrial ATP synthase (DNP-stimulated Mg2+-ATPase), rat heart mitochondria, sequence (P15999 44-553): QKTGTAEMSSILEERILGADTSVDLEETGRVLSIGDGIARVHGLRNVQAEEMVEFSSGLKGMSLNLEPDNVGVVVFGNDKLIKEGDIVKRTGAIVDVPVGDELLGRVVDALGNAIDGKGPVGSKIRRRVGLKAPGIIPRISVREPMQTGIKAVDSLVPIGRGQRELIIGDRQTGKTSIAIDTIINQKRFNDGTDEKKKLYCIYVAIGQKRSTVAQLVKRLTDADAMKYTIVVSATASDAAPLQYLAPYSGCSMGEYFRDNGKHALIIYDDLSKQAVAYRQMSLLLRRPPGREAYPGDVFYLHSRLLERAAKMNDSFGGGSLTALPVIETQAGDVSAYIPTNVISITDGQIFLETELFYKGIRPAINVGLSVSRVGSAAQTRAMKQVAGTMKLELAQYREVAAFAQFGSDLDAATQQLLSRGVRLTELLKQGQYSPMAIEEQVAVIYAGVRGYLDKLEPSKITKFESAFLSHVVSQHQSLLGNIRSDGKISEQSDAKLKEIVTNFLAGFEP
mitochondrial ATP synthase (DNP-stimulated Mg2+-ATPase), rat heart mitochondria, sequence (P35435 whole entry partner): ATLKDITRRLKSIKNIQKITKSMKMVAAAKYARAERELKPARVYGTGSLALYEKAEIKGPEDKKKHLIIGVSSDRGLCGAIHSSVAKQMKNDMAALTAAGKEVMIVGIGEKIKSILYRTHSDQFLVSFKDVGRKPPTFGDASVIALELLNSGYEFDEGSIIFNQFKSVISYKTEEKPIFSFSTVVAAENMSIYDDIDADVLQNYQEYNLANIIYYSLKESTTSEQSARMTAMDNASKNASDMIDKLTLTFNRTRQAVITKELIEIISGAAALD
mitochondrial ATP synthase (DNP-stimulated Mg2+-ATPase), rat heart mitochondria, sequence (P35434 23-168 partner): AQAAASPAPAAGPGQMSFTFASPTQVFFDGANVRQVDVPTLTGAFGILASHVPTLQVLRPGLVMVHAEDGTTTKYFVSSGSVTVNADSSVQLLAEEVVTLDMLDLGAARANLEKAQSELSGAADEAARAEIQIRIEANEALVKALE
mitochondrial ATP synthase (DNP-stimulated Mg2+-ATPase), rat heart mitochondria, sequence (P29418 2-51 partner): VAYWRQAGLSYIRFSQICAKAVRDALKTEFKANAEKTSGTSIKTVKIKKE
mitochondrial ATP synthase (DNP-stimulated Mg2+-ATPase), rat heart mitochondria, sequence (Q06647 24-213 partner): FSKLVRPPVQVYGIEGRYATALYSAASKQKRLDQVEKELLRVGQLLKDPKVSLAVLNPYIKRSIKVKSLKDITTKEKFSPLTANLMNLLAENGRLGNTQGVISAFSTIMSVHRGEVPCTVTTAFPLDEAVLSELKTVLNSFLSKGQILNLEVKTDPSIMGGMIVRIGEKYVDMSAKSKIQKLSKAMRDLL

COC(=O)C1=C(C)NC(C)=C(C(=O)OC)C1c1ccccc1[N+](=O)[O-] [nifedipine]
inhibition at 15 µM (read-out: % inhibition at 0.015 mmol/l): 33%

C[C@H](CS)C(=O)N1CCC[C@H]1C(=O)O [captopril]
inhibition at 450 µM (read-out: % inhibition at 0.45 mmol/l): 97.4%
